From the supplement of paper PMC8671470
± gives the standard deviation of the averaged measurements.

Assays:
Settings in all cases: 72 h
HL-60 [1] = assay: cell viability (% survival relative to DMSO control); higher = less cytotoxic
Method in brief: (§1)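 For each screen, HL-60 cells in RPMI 1640 with 10% FBS carried either DMSO or 100 nM of one of three metabolic inhibitors while the full library was applied at five tenfold concentrations, 1–10,000 nM, in duplicate. Plates were 384-well and were kept 72 h at 37 °C, 5% CO2. Viability, measured by CellTiter-Glo, was normalised to wells with DMSO and with 10 μM proteasome inhibitor. Where area under the curve appears, it was fitted by four-parameter log-logistic models in drc and PharmacoGx.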

HL-60 [2] = assay: area under dose-response curve (viability, 1 nM-10 uM) (fraction (0-1)); higher = more sensitive
Method in brief: as §1

KG-1 = test system: KG-1
Method in brief: (§2)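 Fifteen myeloid leukaemia cell lines were seeded in RPMI 1640 at densities titrated to the linear growth range and placed in 384-well plates with acoustically pre-printed compounds at five tenfold doses from 1 to 10,000 nM, in duplicate. After 72 h at 37 °C with 5% CO2, luminescent ATP viability was normalised to vehicle and to a positive control at 10 µM, and curves were fitted with a four-parameter log-logistic model. The IC50 was obtained from these fits.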

THP-1 = test system: THP-1
Method in brief: as §2

MOLM-13 = test system: MOLM-13
Method in brief: as §2

HEL = test system: HEL
Method in brief: as §2

Mono-Mac-6 = test system: Mono-Mac-6
Method in brief: as §2

NOMO-1 = test system: NOMO-1
Method in brief: as §2

BV-173 = test system: BV-173
Method in brief: as §2

MV4-11 = test system: MV4-11
Method in brief: as §2

SHI-1 = test system: SHI-1
Method in brief: as §2

K-562 = test system: K-562
Method in brief: as §2

KCL-22 = test system: KCL-22
Method in brief: as §2

LAMA-84 = test system: LAMA-84
Method in brief: as §2

HL-60 [3] = test system: HL-60
Method in brief: as §2

KU-812 = test system: KU-812
Method in brief: as §2

ML-2 = test system: ML-2
Method in brief: as §2

[4] = 0.001 µM, co-treatment: AZD3965 100 nM
[5] = 0.001 µM, co-treatment: DMSO vehicle
[6] = 0.001 µM, co-treatment: GSK2194069 100 nM
[7] = 0.001 µM, co-treatment: pictilisib 100 nM
[8] = 0.01 µM, co-treatment: AZD3965 100 nM
[9] = 0.01 µM, co-treatment: DMSO vehicle
[10] = 0.01 µM, co-treatment: GSK2194069 100 nM
[11] = 0.01 µM, co-treatment: pictilisib 100 nM
[12] = 0.1 µM, co-treatment: AZD3965 100 nM
[13] = 0.1 µM, co-treatment: DMSO vehicle
[14] = 0.1 µM, co-treatment: GSK2194069 100 nM
[15] = 0.1 µM, co-treatment: pictilisib 100 nM
[16] = 1 µM, co-treatment: AZD3965 100 nM
[17] = 1 µM, co-treatment: DMSO vehicle
[18] = 1 µM, co-treatment: GSK2194069 100 nM
[19] = 1 µM, co-treatment: pictilisib 100 nM
[20] = 10 µM, co-treatment: AZD3965 100 nM
[21] = 10 µM, co-treatment: DMSO vehicle
[22] = 10 µM, co-treatment: GSK2194069 100 nM
[23] = 10 µM, co-treatment: pictilisib 100 nM
[24] = co-treatment: GSK2194069 100 nM
[25] = co-treatment: pictilisib 100 nM

Cc1c2c(=O)n(-c3ccccc3Cl)[nH]c2cc(=O)n1Cc1ccccn1
cell viability (HL-60 [1]; [4]): 103 ± 2.9% | cell viability (HL-60 [1]; [5]): 103 ± 1.8% | cell viability (HL-60 [1]; [6]): 101 ± 3.2% | cell viability (HL-60 [1]; [7]): 96.69 ± 0.41% | cell viability (HL-60 [1]; [8]): 103 ± 4.3% | cell viability (HL-60 [1]; [9]): 103 ± 1.3% | cell viability (HL-60 [1]; [10]): 105 ± 5% | cell viability (HL-60 [1]; [11]): 103 ± 18% | cell viability (HL-60 [1]; [12]): 96.9 ± 3.3% | cell viability (HL-60 [1]; [13]): 99.6 ± 8.5% | cell viability (HL-60 [1]; [14]): 98.8 ± 5.7% | cell viability (HL-60 [1]; [15]): 100 ± 1.9% | cell viability (HL-60 [1]; [16]): 98.6 ± 5.4% | cell viability (HL-60 [1]; [17]): 99.25 ± 0.98% | cell viability (HL-60 [1]; [18]): 101 ± 6.8% | cell viability (HL-60 [1]; [19]): 95.2 ± 3.8% | cell viability (HL-60 [1]; [20]): 96.6 ± 4% | cell viability (HL-60 [1]; [21]): 101 ± 8.3% | cell viability (HL-60 [1]; [22]): 96.5 ± 3.9% | cell viability (HL-60 [1]; [23]): 94.8 ± 2.1% | area under dose-response curve (HL-60 [2]; co-treatment: AZD3965 100 nM): < 0.0301 | area under dose-response curve (HL-60 [2]; co-treatment: DMSO vehicle): < 0.0301 | area under dose-response curve (HL-60 [2]; [24]): < 0.0301 | area under dose-response curve (HL-60 [2]; [25]): < 0.0301

O=C(Nc1ccccc1)c1cc([N+](=O)[O-])ccc1Cl [GW-9662]
cell viability (HL-60 [1]; [4]): 104 ± 4.8% | cell viability (HL-60 [1]; [5]): 100.8 ± 0.15% | cell viability (HL-60 [1]; [6]): 99.4 ± 3.7% | cell viability (HL-60 [1]; [7]): 106.5 ± 0.24% | cell viability (HL-60 [1]; [8]): 97.15 ± 0.3% | cell viability (HL-60 [1]; [9]): 103.27 ± 0.069% | cell viability (HL-60 [1]; [10]): 92.6 ± 11% | cell viability (HL-60 [1]; [11]): 96.8 ± 5.1% | cell viability (HL-60 [1]; [12]): 102 ± 3.9% | cell viability (HL-60 [1]; [13]): 100 ± 2.6% | cell viability (HL-60 [1]; [14]): 98.7 ± 5.5% | cell viability (HL-60 [1]; [15]): 97.9 ± 2.5% | cell viability (HL-60 [1]; [16]): 100 ± 2.4% | cell viability (HL-60 [1]; [17]): 100.8 ± 0.79% | cell viability (HL-60 [1]; [18]): 96.1 ± 1.9% | cell viability (HL-60 [1]; [19]): 99.3 ± 5.7% | cell viability (HL-60 [1]; [20]): 90.1 ± 20% | cell viability (HL-60 [1]; [21]): 95.6 ± 2.1% | cell viability (HL-60 [1]; [22]): 87.2 ± 8.5% | cell viability (HL-60 [1]; [23]): 94.4 ± 16% | area under dose-response curve (HL-60 [2]; co-treatment: AZD3965 100 nM): < 0.0301 | area under dose-response curve (HL-60 [2]; co-treatment: DMSO vehicle): < 0.0301 | area under dose-response curve (HL-60 [2]; [24]): < 0.0301 | area under dose-response curve (HL-60 [2]; [25]): < 0.0301

CC(C(=O)O)c1cccc(C(=O)c2ccccc2)c1 (stereo not drawn) [Ketoprofen]
IC50 (cell viability) (KG-1): > 10 µM | IC50 (cell viability) (THP-1): > 10 µM | IC50 (cell viability) (MOLM-13): > 10 µM | IC50 (cell viability) (HEL): > 10 µM | IC50 (cell viability) (Mono-Mac-6): > 10 µM | IC50 (cell viability) (NOMO-1): > 10 µM | IC50 (cell viability) (BV-173): > 10 µM | IC50 (cell viability) (MV4-11): > 10 µM | IC50 (cell viability) (SHI-1): > 10 µM | IC50 (cell viability) (K-562): > 10 µM | IC50 (cell viability) (KCL-22): > 10 µM | IC50 (cell viability) (LAMA-84): > 10 µM | IC50 (cell viability) (HL-60 [3]): > 10 µM | IC50 (cell viability) (KU-812): > 10 µM | IC50 (cell viability) (ML-2): > 10 µM
